Like-named read-outs stand apart in the source and are kept apart here.
Columns and labels:
[1] = target: T1, PIK3CA(H1047L) (Homo sapiens, UniProt P42336, H1047L); assay: biochemical; format: binding; conditions: compound concentration 100 nM; Entrez PIK3CA; read-out: Percent Control
[2] = target: PIK3CA(Q546K) (Homo sapiens, UniProt P42336, Q546K); assay: biochemical; format: binding; conditions: read-out: Percent Control
[3] = target: BRAF(V600E) (Homo sapiens, UniProt P15056, V600E); assay: cell-based; conditions: HEK-293T; 1 μM inhibitor, HEK293T cells
[4] = target: ABL1(Q252H)-phosphorylated (Homo sapiens, UniProt P00519, Q252H); assay: biochemical; format: binding; conditions: read-out: Percent Control
[5] = target: KIT(L576P) (Homo sapiens, UniProt P10721, L576P); assay: biochemical; format: binding; conditions: 1000 nM, read-out: Percent Control
[6] = target: ABL1(M351T)-phosphorylated (Homo sapiens, UniProt P00519, M351T); assay: biochemical; format: binding; conditions: compound concentration 100 nM; Entrez ABL1; read-out: Percent Control
[7] = target: FGFR3(G697C) (Homo sapiens, UniProt P22607, G697C); assay: biochemical; format: binding; conditions: read-out: Percent Control
[8] = target: PIK3CA(H1047Y) (Homo sapiens, UniProt P42336, H1047Y); assay: biochemical; format: binding; conditions: compound concentration 100 nM; Entrez PIK3CA; read-out: Percent Control
[9] = target: ABL1(F317L)-nonphosphorylated (Homo sapiens, UniProt P00519, F317L); assay: biochemical; format: binding; conditions: read-out: Percent Control
[10] = target: MET(Y1235D) (Homo sapiens, UniProt P08581, Y1235D); assay: biochemical; format: binding; conditions: 1000 nM, read-out: Percent Control
[11] = target: BRPF1A (Homo sapiens, UniProt P55201); assay: DSF selectivity screening; format: binding; conditions: 10 μM compound
[12] = target: PIK3CA(C420R) (Homo sapiens, UniProt P42336, C420R); assay: biochemical; format: binding; conditions: read-out: Percent Control
[13] = target: EGFR(E746-A750del) (Homo sapiens, UniProt P00533, DEL746-750); assay: biochemical; format: binding; conditions: read-out: Percent Control
[14] = target: ALK(L1196M) (Homo sapiens, UniProt Q9UM73, L1196M); assay: biochemical; format: binding; conditions: 1000 nM, read-out: Percent Control
[15] = target: T1, PIK3CA(H1047L); assay: biochemical; format: binding; conditions: read-out: Percent Control
[16] = target: PIK3CA(E545K) (Homo sapiens, UniProt P42336, E545K); assay: biochemical; format: binding; conditions: read-out: Percent Control
[17] = target: FLT3(D835Y) (Homo sapiens, UniProt P36888, D835Y); assay: biochemical; format: binding; conditions: 1000 nM, read-out: Percent Control
[18] = target: ABL1(F317L)-phosphorylated (Homo sapiens, UniProt P00519, F317L); assay: biochemical; format: binding; conditions: compound concentration 100 nM; Entrez ABL1; read-out: Percent Control
[19] = target: LRRK2(G2019S) (Homo sapiens, UniProt Q5S007, G2019S); assay: biochemical; format: binding; conditions: read-out: Percent Control
[20] = target: T2, FLT3(D835H) (Homo sapiens, UniProt P36888, D835H); assay: biochemical; format: binding; conditions: compound concentration 100 nM; Entrez FLT3; read-out: Percent Control
[21] = target: EGFR(L858R,T790M) (Homo sapiens, UniProt P00533, L858R/T790M); assay: biochemical; format: binding; conditions: compound concentration 100 nM; Entrez EGFR; read-out: Percent Control
[22] = target: EGFR(L747-E749del, A750P) (Homo sapiens, UniProt P00533, A750P/DEL747-749); assay: biochemical; format: binding; conditions: compound concentration 100 nM; Entrez EGFR; read-out: Percent Control
[23] = target: T3, RIPK1 (Homo sapiens, UniProt Q13546); assay: scanMAX KINOMEscan (Eurofins); format: binding
T3 construct: full-length LIMK1/2, RIPK1, BTK, and LRRK2 cloned in a frame in a NanoLuc-vector (Promega); host or cells: HEK293T
T3 sequence (Q13546 1-671): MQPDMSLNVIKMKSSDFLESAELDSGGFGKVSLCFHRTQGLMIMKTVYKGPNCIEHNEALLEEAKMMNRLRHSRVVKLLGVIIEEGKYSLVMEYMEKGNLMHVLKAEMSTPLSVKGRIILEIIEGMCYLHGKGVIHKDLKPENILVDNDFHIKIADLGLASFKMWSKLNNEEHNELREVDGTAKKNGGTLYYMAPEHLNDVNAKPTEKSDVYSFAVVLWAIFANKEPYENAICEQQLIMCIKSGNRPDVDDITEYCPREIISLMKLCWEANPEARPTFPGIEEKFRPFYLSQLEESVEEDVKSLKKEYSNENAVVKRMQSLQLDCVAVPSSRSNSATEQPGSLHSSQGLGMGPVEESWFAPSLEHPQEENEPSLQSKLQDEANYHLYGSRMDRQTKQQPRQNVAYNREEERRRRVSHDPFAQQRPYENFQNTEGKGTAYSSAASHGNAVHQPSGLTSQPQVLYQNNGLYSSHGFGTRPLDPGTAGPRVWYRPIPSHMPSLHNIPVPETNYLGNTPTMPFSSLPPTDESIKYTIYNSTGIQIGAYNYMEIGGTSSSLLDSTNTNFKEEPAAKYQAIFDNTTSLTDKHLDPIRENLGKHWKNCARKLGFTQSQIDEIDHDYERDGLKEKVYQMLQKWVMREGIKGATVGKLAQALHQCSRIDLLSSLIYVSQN

[24] = target: T2, FLT3(D835H); assay: biochemical; format: binding; conditions: 1000 nM, read-out: Percent Control
[25] = target: PIK3CA(E542K) (Homo sapiens, UniProt P42336, E542K); assay: biochemical; format: binding; conditions: read-out: Percent Control
PIK3CA(E542K), sequence (P42336 whole entry E542K): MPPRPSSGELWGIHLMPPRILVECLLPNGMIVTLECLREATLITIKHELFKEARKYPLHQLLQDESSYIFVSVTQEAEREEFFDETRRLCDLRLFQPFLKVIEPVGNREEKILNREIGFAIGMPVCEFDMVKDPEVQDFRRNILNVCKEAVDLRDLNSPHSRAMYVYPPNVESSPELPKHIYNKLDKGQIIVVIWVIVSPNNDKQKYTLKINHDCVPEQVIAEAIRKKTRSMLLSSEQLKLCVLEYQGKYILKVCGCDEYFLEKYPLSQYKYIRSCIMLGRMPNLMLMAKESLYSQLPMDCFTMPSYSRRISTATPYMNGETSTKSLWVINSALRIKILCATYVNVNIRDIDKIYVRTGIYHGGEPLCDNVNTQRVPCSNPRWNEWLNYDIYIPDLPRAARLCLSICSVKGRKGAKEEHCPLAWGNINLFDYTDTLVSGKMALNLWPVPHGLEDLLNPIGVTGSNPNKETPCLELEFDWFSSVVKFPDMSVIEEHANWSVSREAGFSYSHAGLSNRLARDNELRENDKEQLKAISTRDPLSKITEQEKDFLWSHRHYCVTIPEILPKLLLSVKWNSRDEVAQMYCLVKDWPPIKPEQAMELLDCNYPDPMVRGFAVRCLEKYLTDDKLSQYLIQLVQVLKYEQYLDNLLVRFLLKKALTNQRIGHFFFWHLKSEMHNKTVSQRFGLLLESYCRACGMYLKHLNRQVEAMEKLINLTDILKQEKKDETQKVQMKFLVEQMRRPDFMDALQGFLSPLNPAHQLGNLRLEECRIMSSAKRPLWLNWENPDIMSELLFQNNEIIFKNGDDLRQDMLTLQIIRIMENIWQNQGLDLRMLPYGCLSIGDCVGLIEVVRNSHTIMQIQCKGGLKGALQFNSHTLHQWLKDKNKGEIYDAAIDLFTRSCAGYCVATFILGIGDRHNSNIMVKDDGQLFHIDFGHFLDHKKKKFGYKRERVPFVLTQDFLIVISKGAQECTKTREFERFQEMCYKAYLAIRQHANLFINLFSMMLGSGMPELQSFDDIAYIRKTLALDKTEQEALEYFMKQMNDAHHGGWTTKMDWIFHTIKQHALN

T1 sequence (P42336 whole entry H1047L): as the sequence (P42336 whole entry E542K) above, with K542E, H1047L counted along it
PIK3CA(H1047Y), sequence (P42336 whole entry H1047Y): as the sequence (P42336 whole entry E542K) above, with K542E, H1047Y counted along it
PIK3CA(E545K), sequence (P42336 whole entry E545K): as the sequence (P42336 whole entry E542K) above, with K542E, E545K counted along it
MET(Y1235D), sequence (P08581 25-1390 Y1235D): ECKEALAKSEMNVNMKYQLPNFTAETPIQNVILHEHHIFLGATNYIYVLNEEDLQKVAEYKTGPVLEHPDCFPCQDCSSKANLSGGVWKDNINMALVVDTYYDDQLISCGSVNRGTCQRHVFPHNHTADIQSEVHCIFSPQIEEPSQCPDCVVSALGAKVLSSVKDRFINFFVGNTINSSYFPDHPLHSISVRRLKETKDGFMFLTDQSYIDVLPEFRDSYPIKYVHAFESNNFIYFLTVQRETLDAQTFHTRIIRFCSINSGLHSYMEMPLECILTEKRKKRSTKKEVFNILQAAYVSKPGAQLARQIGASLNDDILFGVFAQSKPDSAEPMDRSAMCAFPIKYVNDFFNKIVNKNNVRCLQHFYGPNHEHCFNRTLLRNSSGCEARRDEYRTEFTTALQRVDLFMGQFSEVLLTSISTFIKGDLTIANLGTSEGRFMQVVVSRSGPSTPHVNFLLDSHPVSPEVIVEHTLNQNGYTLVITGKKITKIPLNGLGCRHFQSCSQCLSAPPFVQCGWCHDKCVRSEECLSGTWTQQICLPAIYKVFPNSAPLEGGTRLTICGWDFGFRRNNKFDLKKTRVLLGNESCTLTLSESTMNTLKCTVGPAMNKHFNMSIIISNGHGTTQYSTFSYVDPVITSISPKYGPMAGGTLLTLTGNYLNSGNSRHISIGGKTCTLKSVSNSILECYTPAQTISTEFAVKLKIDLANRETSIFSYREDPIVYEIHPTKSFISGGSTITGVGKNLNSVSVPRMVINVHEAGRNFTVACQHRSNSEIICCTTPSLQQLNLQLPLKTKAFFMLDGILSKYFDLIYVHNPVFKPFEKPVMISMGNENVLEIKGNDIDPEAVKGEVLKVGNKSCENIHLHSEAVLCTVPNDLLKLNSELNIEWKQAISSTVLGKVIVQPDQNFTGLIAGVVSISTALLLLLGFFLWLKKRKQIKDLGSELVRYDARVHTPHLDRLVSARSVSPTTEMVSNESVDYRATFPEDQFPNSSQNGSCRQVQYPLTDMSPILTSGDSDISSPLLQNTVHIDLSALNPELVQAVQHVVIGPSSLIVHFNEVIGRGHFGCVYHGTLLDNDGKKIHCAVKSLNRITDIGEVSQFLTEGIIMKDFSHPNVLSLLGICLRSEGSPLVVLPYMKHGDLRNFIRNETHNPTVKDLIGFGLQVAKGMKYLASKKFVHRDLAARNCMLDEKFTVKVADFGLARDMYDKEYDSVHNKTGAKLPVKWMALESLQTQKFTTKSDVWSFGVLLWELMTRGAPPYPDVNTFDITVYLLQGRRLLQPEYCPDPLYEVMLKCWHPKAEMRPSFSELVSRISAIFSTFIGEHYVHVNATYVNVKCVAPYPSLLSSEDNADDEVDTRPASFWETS
BRAF(V600E), sequence (P15056 whole entry V600E): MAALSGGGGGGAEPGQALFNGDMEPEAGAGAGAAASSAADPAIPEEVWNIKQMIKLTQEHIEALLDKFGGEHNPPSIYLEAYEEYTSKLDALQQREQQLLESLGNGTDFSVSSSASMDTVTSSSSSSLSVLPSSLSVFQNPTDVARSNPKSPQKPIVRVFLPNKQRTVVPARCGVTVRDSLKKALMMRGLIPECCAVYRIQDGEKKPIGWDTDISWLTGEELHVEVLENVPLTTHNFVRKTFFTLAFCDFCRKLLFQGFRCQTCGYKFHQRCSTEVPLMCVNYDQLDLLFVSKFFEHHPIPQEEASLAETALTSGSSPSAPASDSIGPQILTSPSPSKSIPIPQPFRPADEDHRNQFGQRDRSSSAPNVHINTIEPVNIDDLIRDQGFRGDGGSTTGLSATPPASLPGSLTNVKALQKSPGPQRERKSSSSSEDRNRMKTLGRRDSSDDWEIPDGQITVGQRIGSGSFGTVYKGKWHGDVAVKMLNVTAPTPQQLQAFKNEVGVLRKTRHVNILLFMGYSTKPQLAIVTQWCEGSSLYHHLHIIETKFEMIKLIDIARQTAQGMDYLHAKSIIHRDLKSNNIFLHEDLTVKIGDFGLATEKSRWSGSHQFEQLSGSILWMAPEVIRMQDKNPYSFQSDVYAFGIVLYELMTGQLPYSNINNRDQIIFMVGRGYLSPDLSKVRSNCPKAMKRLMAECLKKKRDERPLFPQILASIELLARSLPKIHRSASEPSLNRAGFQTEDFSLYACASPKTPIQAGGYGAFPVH
ALK(L1196M), sequence (Q9UM73 19-1620 L1196M): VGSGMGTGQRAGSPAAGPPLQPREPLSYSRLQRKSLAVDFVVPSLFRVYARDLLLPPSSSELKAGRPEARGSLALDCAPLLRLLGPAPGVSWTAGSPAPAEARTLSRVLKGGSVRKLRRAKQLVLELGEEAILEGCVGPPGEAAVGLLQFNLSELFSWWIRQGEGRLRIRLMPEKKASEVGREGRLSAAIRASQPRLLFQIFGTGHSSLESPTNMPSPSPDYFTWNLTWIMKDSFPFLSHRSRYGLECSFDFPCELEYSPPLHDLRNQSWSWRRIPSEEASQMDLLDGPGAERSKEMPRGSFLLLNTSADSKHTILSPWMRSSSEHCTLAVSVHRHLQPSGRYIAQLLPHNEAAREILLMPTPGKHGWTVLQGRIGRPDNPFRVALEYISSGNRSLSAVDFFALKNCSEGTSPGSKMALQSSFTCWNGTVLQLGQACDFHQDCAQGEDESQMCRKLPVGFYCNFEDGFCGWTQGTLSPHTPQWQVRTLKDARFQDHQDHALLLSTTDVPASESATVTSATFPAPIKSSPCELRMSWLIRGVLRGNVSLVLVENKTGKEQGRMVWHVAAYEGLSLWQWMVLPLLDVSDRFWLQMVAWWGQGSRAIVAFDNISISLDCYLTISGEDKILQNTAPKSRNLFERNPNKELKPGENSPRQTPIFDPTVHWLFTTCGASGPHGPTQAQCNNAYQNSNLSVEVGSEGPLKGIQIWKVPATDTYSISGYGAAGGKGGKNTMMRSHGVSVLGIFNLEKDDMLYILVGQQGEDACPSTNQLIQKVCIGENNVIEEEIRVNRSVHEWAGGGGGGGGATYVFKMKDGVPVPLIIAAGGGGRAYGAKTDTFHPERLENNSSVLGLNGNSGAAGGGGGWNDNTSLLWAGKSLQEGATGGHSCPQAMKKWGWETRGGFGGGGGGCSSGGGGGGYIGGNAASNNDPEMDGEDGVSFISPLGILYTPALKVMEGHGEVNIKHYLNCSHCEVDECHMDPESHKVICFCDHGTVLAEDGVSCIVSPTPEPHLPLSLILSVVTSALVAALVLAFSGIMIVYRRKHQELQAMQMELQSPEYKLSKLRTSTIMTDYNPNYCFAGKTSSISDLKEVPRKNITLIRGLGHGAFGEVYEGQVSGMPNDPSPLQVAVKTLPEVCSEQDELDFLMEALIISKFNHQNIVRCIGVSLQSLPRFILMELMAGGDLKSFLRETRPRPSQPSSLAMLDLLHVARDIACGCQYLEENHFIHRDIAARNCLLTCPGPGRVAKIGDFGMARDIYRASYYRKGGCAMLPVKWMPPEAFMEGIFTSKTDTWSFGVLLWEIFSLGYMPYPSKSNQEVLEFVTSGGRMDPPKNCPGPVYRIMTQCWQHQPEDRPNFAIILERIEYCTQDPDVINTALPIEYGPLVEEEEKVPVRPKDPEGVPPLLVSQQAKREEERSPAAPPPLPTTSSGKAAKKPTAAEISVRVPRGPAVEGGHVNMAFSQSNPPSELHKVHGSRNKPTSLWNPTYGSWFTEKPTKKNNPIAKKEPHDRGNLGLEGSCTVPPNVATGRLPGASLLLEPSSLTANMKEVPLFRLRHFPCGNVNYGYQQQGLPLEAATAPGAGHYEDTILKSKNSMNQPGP
PIK3CA(Q546K), sequence (P42336 whole entry Q546K): as the sequence (P42336 whole entry E542K) above, with K542E, Q546K counted along it
PIK3CA(C420R), sequence (P42336 whole entry C420R): as the sequence (P42336 whole entry E542K) above, with C420R, K542E counted along it

CN1C(=O)[C@@H](N2CCc3c(nn(Cc4ccccc4)c3C(N)=O)C2=O)COc2cc(Cl)ccc21 [Compound 10, (S)-2-benzyl-6-(8-chloro-5-methyl-4-oxo-2,3,4,5-tetrahydrobenzo[b][1,4]oxazepin-3-yl)-7-oxo-4,5,6,7-tetrahydro-2H-pyrazolo[3,4-c]pyridine-3-carboxamide]
remaining activity at 0.1 µM [1]: 75%
remaining activity at 1 µM [2]: 97%
receptor occupancy at 1 µM [3]: -9.8%
remaining activity at 1 µM [4]: 78%
remaining activity at 1 µM [5]: 92%
remaining activity at 0.1 µM [6]: 92%
remaining activity at 1 µM [7]: 100%
remaining activity at 0.1 µM [8]: 100%
remaining activity at 1 µM [9]: 86%
remaining activity at 1 µM [10]: 93%
ΔTm at 10 µM [11]: -0.8 °C
remaining activity at 1 µM [12]: 92%
remaining activity at 1 µM [13]: 86%
remaining activity at 1 µM [14]: 90%
remaining activity at 1 µM [15]: 99%
remaining activity at 1 µM [16]: 97%
remaining activity at 1 µM [17]: 94%
remaining activity at 0.1 µM [18]: 100%
remaining activity at 1 µM [19]: 86%
remaining activity at 0.1 µM [20]: 84%
remaining activity at 0.1 µM [21]: 100%
remaining activity at 0.1 µM [22]: 100%
remaining binding at 0.1 µM ([23]; RIPK1 (Entrez RIPK1), 100 nM, read-out: Percent Control): 55%
remaining binding at 1 µM ([23]; RIPK1, 1 μM, read-out: POC (Top Hits @ 1 μM)): 23%
remaining binding at 1 µM ([23]; RIPK1, 1000 nM, read-out: Percent Control): 23%
remaining activity at 1 µM [24]: 100%
remaining activity at 1 µM [25]: 94%
